Test results as given in article PMC9137581, “Identification of a Novel Class of Anti-Melanogenic Compounds, (Z)-5-(Substituted benzylidene)-3-phenyl-2-thioxothiazolidin-4-one Derivatives, and Their Reactive Oxygen Species Scavenging Activities” (Antioxidants, 2022).

How the values were obtained:
Assay type in all cases: cell-based, murine
TRP-2 = experiment: qRT-PCR of TRP-2 mRNA; conditions: versus non-treated controls, B16F10 cells
Procedure: (§1) The total RNAs from the cells were purified using the RiboEx Total RNA solution (GeneAll Biotechnology, Seoul, Korea) and the cDNA was synthesized from the total RNA (2 µg) using SuPrimeScript RT Premix with random hexamer (GeNet Bio, Daejeon, Korea), according to the manufacturers’ instructions. Real-time qPCR was performed using SensiFASTTM SYBR® No-ROX dye (Bioline, London, UK) and a CFX Connect System (Bio-Rad Laboratories, Hercules, CA, USA). The qRT-PCR primers that are specifically for tyrosinase, TRP-1, TRP-2, and β-actin were obtained from Bioneer Inc. (Daejeon, Korea). The relative gene expressions were calculated using the standard curve method and β-actin as the internal control.

tyrosinase [1] = experiment: Western blot of cytosolic tyrosinase protein; conditions: 2.5–20 µM, 24 h, cytosolic fraction, B16F10 cells
Procedure: B16F10 cells were treated with five concentrations (0, 2.5, 5, 10, and 20 µM) of analog 2 for 24 h, washed twice with cold PBS, and then harvested. Pellets were then suspended in buffer A [NaBu, β-glycerophosphate, 1 M HEPES, 100 mM MgCl, 500 mM DTT, 100 mM NaF, 10 mM Na-orthovanadate, pepstatin, aprotinin, leupeptin, 1% NP-40, and PMSF], incubated on ice for 20 min, and then centrifuged at 12,000 rpm for 10 min at 4 °C. The supernatants that were obtained contained cytosolic fractions. The pellets were resuspended in buffer B [NaBu, β-glycerophosphate, 1 M HEPES, 5 M NaCl, 10 mM Na-orthovanadate, pepstatin, aprotinin, leupeptin, 100 mM NaF, 100 mM EDTA, and PMSF], incubated on ice for 30 min, and then centrifuged at 12,000 rpm for 20 min at 4 °C. The resultant supernatants contained nuclear fractions.
Protein concentrations were determined using a BCA™ protein assay kit (Pierce, Rockford, IL, USA). Briefly, lysed samples were boiled for 10 min in gel-loading buffer (0.125 M Tris-HCl, pH 6.8, 4% SDS, 10% 2-mercaptoethanol, and 0.2% bromophenol blue) at a volume ratio of 1:1. […] The western blot data were quantified using CS Analyser 3.2 (Densitograph) image analysis software (http://www.attokorea.co.kr, accessed on 4 March 2022).

tyrosinase [2] = experiment: qRT-PCR of tyrosinase mRNA; conditions: versus non-treated controls, B16F10 cells
Procedure: as §1

TRP-1 = experiment: qRT-PCR of TRP-1 mRNA; conditions: versus non-treated controls, B16F10 cells
Procedure: as §1

In the case of `O=C1/C(=C/c2ccc(O)c(O)c2)SC(=S)N1c1ccccc1` [Analog 2, (Z)-5-(3,4-Dihydroxybenzylidene)-3-phenyl-2-thioxothiazolidin-4-one], the “TRP-2 mRNA expression level” value (TRP-2) is reported as “significantly and concentration-dependently reduced”, the tyrosinase protein level (tyrosinase [1]) is reported as “significantly and concentration-dependently reduced” and the “tyrosinase mRNA expression level” value (tyrosinase [2]) is reported as “significantly and concentration-dependently reduced”. The “TRP-1 mRNA expression level” value (TRP-1) was “significantly and concentration-dependently reduced”.
